This is an account of results in PubChem BioAssay (NCI).

Among the test systems are TK-10 renal; SK-MEL-28 melanoma; SNB-19 CNS; SF-539 CNS; HOP-62 NSCLC; NCI-H460 lung; UO-31 renal; A549 NSCLC; OVCAR-8 ovarian; OVCAR-4 ovarian.
Holding throughout (experiment): NCI tumour cell line growth inhibition, 48 h

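Exposure lasted 48 hours, with cells grown in 96-well plates and compounds tested at five concentrations. Here, GI50 denotes the concentration required for 50% inhibition of growth. TGI: concentration producing complete growth inhibition.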 Some results are limits rather than exact numbers.

Take `C=C1C(=O)O[C@H]2C/C(C=O)=C\[C@H]3O[C@H]3/C(COC(=O)C(C)C)=C/CC12` (some centres undefined): the TGI in the experiment on TK-10 renal is 25.7 µM; in the experiment with SK-MEL-28 melanoma, 14.8 µM; in the experiment with SNB-19 CNS, 35.4 µM; with SF-539 CNS, 47.3 µM; with HOP-62 NSCLC, 26.5 µM; in the experiment with NCI-H460 lung, 26.8 µM. Also, the TGI came out at 18 µM in the experiment on UO-31 renal, 37.3 µM in the experiment on A549 NSCLC and 13.3 µM in the experiment on OVCAR-8 ovarian.
On to `O=c1c(-c2ccc(O)cc2)coc2cc(O)cc(O)c12`, for which the TGI with TK-10 renal, with SK-MEL-28 melanoma, in the experiment with SNB-19 CNS, with SF-539 CNS, in the experiment with NCI-H460 lung and in the experiment with OVCAR-4 ovarian was above 100 µM throughout. Also, the TGI in the experiment on UO-31 renal, with A549 NSCLC and in the experiment on OVCAR-8 ovarian was above 100 µM in each case.
Turning to `CCOC(=O)c1cc(-c2ccn(C(C)=O)c2)c(-c2cc(C)co2)[nH]1`, the TGI with TK-10 renal, with SK-MEL-28 melanoma, in the experiment on SNB-19 CNS, in the experiment on HOP-62 NSCLC, in the experiment with NCI-H460 lung and with OVCAR-4 ovarian was above 100 µM in each case. Further, the TGI in the experiment on UO-31 renal, in the experiment on A549 NSCLC and with OVCAR-8 ovarian was above 100 µM throughout.
For `CC1(C)Oc2ccc3c(=O)c4ccccc4oc3c2C1C(=O)O` (centres undefined), the TGI with TK-10 renal, in the experiment with SF-539 CNS, in the experiment on HOP-62 NSCLC, in the experiment on OVCAR-4 ovarian, in the experiment with A549 NSCLC and in the experiment with OVCAR-8 ovarian was above 100 µM each time.
With `O=C(O)CCCc1ccc2c(c1)CC1(C2)Cc2ccc(CCCC(=O)O)cc2C1`, the TGI in the experiment on TK-10 renal, in the experiment on SF-539 CNS, with HOP-62 NSCLC, in the experiment on OVCAR-4 ovarian, in the experiment with UO-31 renal and with A549 NSCLC was above 100 µM in each case. For the same molecule, in the experiment with OVCAR-8 ovarian, the TGI was above 100 µM.
Turning to `CC1(C)CC2(C)OC(=N)C1(C#N)C2(C#N)C#N` (centres undefined), the TGI with TK-10 renal came out at 22.7 µM; in the experiment with SNB-19 CNS, 31 µM; in the experiment with SF-539 CNS, 24.5 µM; in the experiment on UO-31 renal, 16.2 µM; with A549 NSCLC it was 60 µM; in the experiment on OVCAR-8 ovarian, 46.8 µM.
On to `Oc1ccc2ccccc2c1OCc1nnc(CCCCCCCCc2nnc(COc3c(O)ccc4ccccc34)o2)o1`, for which the TGI in the experiment on TK-10 renal, in the experiment on SK-MEL-28 melanoma, in the experiment on SNB-19 CNS, in the experiment on NCI-H460 lung, in the experiment on OVCAR-4 ovarian and in the experiment with UO-31 renal was above 100 µM each time. Moreover, in the experiment on A549 NSCLC, the TGI was above 100 µM.
With `Cc1ccc2cnc(N)c(C#Cc3cncc(C(=O)Nc4ccc(CN5CCN(C)CC5)c(C(F)(F)F)c4)c3)c2c1`, the GI50 with TK-10 renal was 0.642 µM; in the experiment on SK-MEL-28 melanoma it was 0.616 µM; in the experiment with SNB-19 CNS it was 0.786 µM; in the experiment with SF-539 CNS it was 0.275 µM; in the experiment on HOP-62 NSCLC, 0.562 µM; in the experiment on NCI-H460 lung, 0.212 µM. Also, the GI50 was 0.589 µM in the experiment on UO-31 renal, 0.485 µM in the experiment with A549 NSCLC and 0.579 µM with OVCAR-8 ovarian. In addition, the TGI in the experiment with TK-10 renal amounted to 1.29 µM; with SK-MEL-28 melanoma, 1.25 µM; in the experiment with SNB-19 CNS, 1.46 µM; in the experiment on SF-539 CNS it was 0.877 µM; with HOP-62 NSCLC, 1.19 µM; in the experiment with NCI-H460 lung it was 0.819 µM. Besides, the TGI with UO-31 renal turned out to be 1.22 µM; with A549 NSCLC it was 1.19 µM; in the experiment on OVCAR-8 ovarian, 1.22 µM.
With `COC(=O)/C=C\C(C#N)(C#N)N=Cc1ccsc1`, the TGI in the experiment on TK-10 renal worked out at 5.96 µM; in the experiment on SK-MEL-28 melanoma, 7.43 µM; with SNB-19 CNS it was 27.6 µM; in the experiment on HOP-62 NSCLC it was 30.9 µM; with NCI-H460 lung, 33.6 µM; in the experiment with OVCAR-4 ovarian it was 32.5 µM. For the same molecule, the TGI was 8.85 µM in the experiment on UO-31 renal, 33 µM with A549 NSCLC and 13.3 µM in the experiment with OVCAR-8 ovarian.
As for `CC(=O)[C@H]1CCC2[C@@H]3CC=C4C(O)C(OS(=O)(=O)O)CC[C@]4(C)C3CC[C@@]21C` (some centres undefined), the TGI in the experiment with SK-MEL-28 melanoma, in the experiment on SNB-19 CNS, in the experiment with SF-539 CNS, with HOP-62 NSCLC, with NCI-H460 lung and in the experiment with OVCAR-4 ovarian was above 100 µM in each case. Further, the TGI in the experiment with UO-31 renal, with A549 NSCLC and in the experiment on OVCAR-8 ovarian was above 100 µM throughout.
With `NC1CCCCC1N.O=S(=O)([O-])CCCN1CCN(CCO)CC1.O=S(=O)([O-])CCCN1CCN(CCO)CC1.[Pt+4]`, the GI50 with SK-MEL-28 melanoma is 8.22 µM; with SNB-19 CNS, 43.1 µM; in the experiment on SF-539 CNS, 10.7 µM; in the experiment with HOP-62 NSCLC, above 20.7 µM; in the experiment on NCI-H460 lung it was 1.15 µM; in the experiment on OVCAR-4 ovarian it was 1.63 µM. For the same molecule, the figures for the GI50 with UO-31 renal, in the experiment with A549 NSCLC and with OVCAR-8 ovarian were 13.5 µM, 4.7 µM and 2.78 µM, respectively. Further, the TGI in the experiment on SK-MEL-28 melanoma is 29.8 µM; in the experiment with SNB-19 CNS, above 100 µM; in the experiment with SF-539 CNS it was above 100 µM; with HOP-62 NSCLC it was above 100 µM; in the experiment on NCI-H460 lung, above 46 µM; with OVCAR-4 ovarian it was 19.2 µM. Further, the TGI with UO-31 renal, with A549 NSCLC and with OVCAR-8 ovarian was above 100 µM throughout.
As to `Cc1cc(C)c2c(c1)CC1(Cc3c(C)cc(C)cc3C1=O)C2=O` (centres undefined), the TGI in the experiment with TK-10 renal, in the experiment on SK-MEL-28 melanoma, in the experiment with SNB-19 CNS, in the experiment with SF-539 CNS, in the experiment with NCI-H460 lung and in the experiment with OVCAR-4 ovarian was above 100 µM each time. The TGI in the experiment on UO-31 renal, with A549 NSCLC and in the experiment on OVCAR-8 ovarian was above 100 µM each time.
As for `COc1ccc(N2C(=O)/C(=C/c3ccc(N(CCC#N)CCC#N)cc3)N=C2c2ccccc2)c(OC)c1`, the TGI in the experiment on TK-10 renal, in the experiment on SK-MEL-28 melanoma, with SNB-19 CNS, in the experiment on SF-539 CNS, in the experiment on NCI-H460 lung and in the experiment with OVCAR-4 ovarian was above 100 µM throughout. Moreover, the TGI with UO-31 renal and with OVCAR-8 ovarian was above 100 µM in each case.
